Assay results published in patent US20250003877A1, “Silyl Bridged Dyes” (priority 2021, published 2025).

Settings: for Brightness (ϕ × ε) / Em (nm) / Ex (nm) / ε (M^−1 cm^−1) / ϕ (quantum yield) / brighter than dimethylsilyl counterpart: PBS; for ϕ (quantum yield): pH 7.4; for brighter than dimethylsilyl counterpart: vs 001 (for 002, 009) or vs 016 (for 017)

| Structure (SMILES) | Brightness (ϕ × ε) | Em (nm) | Ex (nm) | ε (M^−1 cm^−1) | ϕ (quantum yield) | brighter than dimethylsilyl counterpart [%] | red-shift compared to dimethylsilyl counterpart (vs 001 (for 007) or vs 020 (for 021, 022), excitation and emission) | quantum yield (pH 3 acetate buffer) |
| --- | --- | --- | --- | --- | --- | --- | --- | --- |
| CC[Si]1(CC)C2=CC(=[N+](C)C)C=CC2=C(c2ccccc2C)c2ccc(N(C)C)cc21 [Compound 002, N-(7-(Dimethylamino)-5,5-diethyl-10-(o-tolyl)dibenzo[b,e]silin-3(5H)-ylidene)-N-methylmethanaminium] | 58,540 | 664 | 648 | 164,900 M^−1 cm^−1 | 0.36 | 30 |  |  |
| C=C[Si]1(C)C2=CC(=[N+](C)C)C=CC2=C(c2ccccc2C)c2ccc(N(C)C)cc21 (centres unmarked) [Compound 003, N-(7-(Dimethylamino)-5-methyl-10-(o-tolyl)-5-vinyldibenzo[b,e]silin-3(5H)-ylidene)-N-methylmethanaminium] | 48,924 | 668 | 651 | 141,400 M^−1 cm^−1 | 0.35 |  |  |  |
| Cc1ccccc1C1=C2C=CC(=[N+](C)C)C=C2[Si](C)(c2ccccc2)c2cc(N(C)C)ccc21 (centres unmarked) [Compound 004, N-(7-(Dimethylamino)-5-methyl-5-phenyl-10-(o-tolyl)dibenzo[b,e]silin-3(5H)-ylidene)-N-methylmethanaminium] | 34,203 | 670 | 657 | 99,140 M^−1 cm^−1 | 0.35 |  |  |  |
| C=C[Si]1(c2ccccc2)C2=CC(=[N+](C)C)C=CC2=C(c2ccccc2C)c2ccc(N(C)C)cc21 (centres unmarked) [Compound 005, N-(7-(Dimethylamino)-5-phenyl-10-(o-tolyl)-5-vinyldibenzo[b,e]silin-3(5H)-ylidene)-N-methylmethanaminium] | 53,499 | 676 | 658 | 150,700 M^−1 cm^−1 | 0.36 |  |  |  |
| C=C[Si]1(C=C)C2=CC(=[N+](C)C)C=CC2=C(c2ccccc2C)c2ccc(N(C)C)cc21 [Compound 006, N-(7-(Dimethylamino)-10-(o-tolyl)-5,5-divinyldibenzo[b,e]silin-3(5H)-ylidene)-N-methylmethanaminium] | 56,671 | 672 | 657 | 158,300 M^−1 cm^−1 | 0.36 |  |  |  |
| Cc1ccccc1C1=C2C=CC(=[N+](C)C)C=C2[Si](c2ccccc2)(c2ccccc2)c2cc(N(C)C)ccc21 [Compound 007, N-(7-(Dimethylamino)-5,5-diphenyl-10-(o-tolyl)dibenzo[b,e]silin-3(5H)-ylidene)-N-methylmethanaminium] | 41,952 | 677 | 663 | 120,900 M^−1 cm^−1 | 0.35 |  | approximately 15 nm |  |
| Cc1ccccc1C1=C2C=CC(=[N+](C)C)C=C2[Si](C)(c2cccc(N(C)C)c2)c2cc(N(C)C)ccc21 (centres unmarked) [Compound 008, N-(7-(Dimethylamino)-5-(3-(dimethylamino)phenyl)-5-methyl-10-(o-tolyl)dibenzo[b,e]silin-3(5H)-ylidene)-N-methylmethanaminium] | 3700 | 668 | 651 | 154,200 M^−1 cm^−1 | 0.02 |  |  | 0.31 |
| Cc1ccccc1C1=C2C=CC(=[N+](C)C)C=C2[Si](C)(CCCCl)c2cc(N(C)C)ccc21 (centres unmarked) [Compound 009, N-(5-(3-Chloropropyl)-7-(dimethylamino)-5-methyl-10-(o-tolyl)dibenzo[b,e]silin-3(5H)-ylidene)-N-methylmethanaminium] | 64,113 | 665 | 650 | 180,600 M^−1 cm^−1 | 0.36 | 50 |  |  |
